Measurements published in US20140155589A1 (priority 2011, published 2014).
Like-named read-outs stand apart in the source and are kept apart here.

Tested on: Pseudomonas aeruginosa (PA 01 strain)
Conditions: for Amount of pyocyanine produced per viable bacterial count Relative value (%): relative to control without compound; for Viable bacterial count: shake culture 37° C. 48 hours; for viable bacterial count compared with control: summary of Table 12; for amount of pyocyanine produced per viable bacterial count compared with control: summary of Table 13
[1] = Concentration of compound added 10 mM
[2] = Concentration of compound added 20 mM
[3] = Concentration of compound added 25 mM

SMILES | Amount of pyocyanine produced per viable bacterial count Relative value (%) [1] [%] | Viable bacterial count [1] [mL⁻¹] | Amount of pyocyanine produced per viable bacterial count Relative value (%) [2] [%] | Viable bacterial count [2] [mL⁻¹] | Amount of pyocyanine produced per viable bacterial count Relative value (%) [3] [%] | Viable bacterial count [3] [mL⁻¹] | viable bacterial count compared with control | amount of pyocyanine produced per viable bacterial count compared with control
C=CC(=O)O [Acrylic acid] | 250.1 | 1.09e+09 | 201.8 | 9.4e+08 | 233.1 | 8.4e+08 | almost no difference | larger than that in the control
O=P(O)(O)O [Phosphoric acid] | 118 | 1.6e+09 | 105.8 | 1.56e+09 | 107.6 | 1.49e+09 | almost no difference | not so different
O=P(O)(O)OP(=O)(O)OP(=O)(O)O [Triphosphoric acid] | 40.3 | 1.5e+09 | 11.5 | 1.5e+09 | 5.4 | 1.52e+09 | almost no difference | significantly lower
